Measured values from US6638943B2 (The University of Tennessee Research Foundation, priority 2001, dated 2003).
Where two headings read alike, the source gives them in different places.

What was measured:
human α2c-AR = target: T1, human α2c-AR (Homo sapiens, UniProt P18825); test: [3H]Rauwolscine equilibrium competition binding, human α2c-AR expressed in CHO cells
T1 construct: expressed in transfected cells
T1 sequence (P18825 1-462): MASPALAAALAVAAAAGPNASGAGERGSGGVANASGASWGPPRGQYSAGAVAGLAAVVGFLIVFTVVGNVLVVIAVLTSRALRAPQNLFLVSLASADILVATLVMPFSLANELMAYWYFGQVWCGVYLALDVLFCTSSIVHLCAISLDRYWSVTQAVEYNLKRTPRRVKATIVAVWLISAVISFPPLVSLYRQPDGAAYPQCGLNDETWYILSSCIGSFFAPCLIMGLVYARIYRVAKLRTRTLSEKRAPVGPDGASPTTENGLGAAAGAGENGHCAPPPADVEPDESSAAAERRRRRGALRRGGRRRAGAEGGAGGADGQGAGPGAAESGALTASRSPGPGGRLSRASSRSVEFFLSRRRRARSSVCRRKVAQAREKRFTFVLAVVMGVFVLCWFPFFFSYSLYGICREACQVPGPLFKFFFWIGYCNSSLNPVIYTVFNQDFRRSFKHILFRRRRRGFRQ

human α2b-AR = target: T2, human α2b-AR (Homo sapiens, UniProt P18089); test: [3H]Rauwolscine equilibrium competition binding, human α2b-AR expressed in CHO cells
T2 construct: expressed in transfected cells
T2 sequence (P18089 1-450): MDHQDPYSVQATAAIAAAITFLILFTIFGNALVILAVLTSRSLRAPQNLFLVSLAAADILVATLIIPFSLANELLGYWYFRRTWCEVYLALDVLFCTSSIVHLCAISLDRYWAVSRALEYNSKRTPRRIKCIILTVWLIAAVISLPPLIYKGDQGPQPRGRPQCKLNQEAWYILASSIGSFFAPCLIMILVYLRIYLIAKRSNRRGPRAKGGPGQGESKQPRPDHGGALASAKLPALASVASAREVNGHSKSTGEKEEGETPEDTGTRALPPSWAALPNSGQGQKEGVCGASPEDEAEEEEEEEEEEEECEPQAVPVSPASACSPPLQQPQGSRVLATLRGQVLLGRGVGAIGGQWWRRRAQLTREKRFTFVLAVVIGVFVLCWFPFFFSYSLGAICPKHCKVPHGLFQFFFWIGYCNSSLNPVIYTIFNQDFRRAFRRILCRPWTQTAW

human α2a-AR = target: T3, human α2a-AR (Homo sapiens, UniProt P08913); test: [3H]Rauwolscine equilibrium competition binding, human α2a-AR expressed in CHO cells; details: for Ki: human α2a-AR in CHO cells; for α2a/α2b Selectivity = Ki(α2b)/Ki(α2a): Table 1, ratio of Ki values
T3 construct: expressed in transfected cells
T3 sequence (P08913 1-465): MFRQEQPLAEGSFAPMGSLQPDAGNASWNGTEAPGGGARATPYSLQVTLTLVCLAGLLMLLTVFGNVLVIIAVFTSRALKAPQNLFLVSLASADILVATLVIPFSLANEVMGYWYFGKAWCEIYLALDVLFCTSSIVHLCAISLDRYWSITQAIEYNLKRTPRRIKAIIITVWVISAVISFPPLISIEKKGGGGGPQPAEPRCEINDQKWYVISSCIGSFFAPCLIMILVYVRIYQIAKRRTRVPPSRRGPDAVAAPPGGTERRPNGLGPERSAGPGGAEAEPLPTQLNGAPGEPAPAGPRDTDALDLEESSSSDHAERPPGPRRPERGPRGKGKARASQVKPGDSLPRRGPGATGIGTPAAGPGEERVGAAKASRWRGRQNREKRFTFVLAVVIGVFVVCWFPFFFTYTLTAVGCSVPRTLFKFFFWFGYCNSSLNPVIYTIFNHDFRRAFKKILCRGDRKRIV

[1] = tested on: cremaster muscle arterioles (A3-A4 resistance vessels); test: Intravital microscopy of mouse cremaster muscle arterioles; assay type: in vivo, male C57-BL mice; details: 37° C., systemic administration via femoral vein, n=6
Procedure: Male C57-BL mice age 7-8 weeks and weighing approximately 20 g were used for the study. Prior to surgery animals were anesthetized with an i.m. injection of […] of Ketaset (87 mg ketamine/mL+13 mg xylazine/mL). Body temperature was maintained at ˜37° C. by convective heating. The animal was supinated and a midline incision was made in the ventro-cervical region and the underlying tissues bisected laterally to expose the trachea. A tracheotomy was performed and the animal intubated directly with PE50 tubing to facilitate ventilation, and the wound closed. The left rear limb was incised to expose the femoral neurovascular bundle, and the femoral vein isolated and catheterized with PE10 tubing attached to a syringe of normal saline. […]. […]
All experiments were carried out using an industrial grade microscope (Nikon MM-11) with two light sources, bright field (Opti-Quip 75 W xenon) and fluorescent (Nikon 150 W mercury). […] Experiments are viewed on a video monitor and recorded on digital tapes for off-line processing. The video images are analyzed off-line using the MetaMorph software (Universal Imaging Co.) on a Dell Optiplex GX-1. […]
The prepared animal was placed on the stage of the microscope on either the surgery board with the translumination window or on a stereotaxic frame. […] The blood pressure was monitored with a Kent Scientific XBP-1000 unit.

[2] = Table 2, mean ± SEM of n = 4-6, read-out: pKi α2b-AR (converted)
[3] = [3H]rauwolscine 2.54 nM, mean ± SEM of four to nine experiments, read-out: Ki = SEM (nM) α2b-AR
[4] = Table 2, mean ± SEM of n = 4-6, read-out: pKi α2a-AR (converted)
[5] = [3H]rauwolscine 2.54 nM, mean ± SEM of four to nine experiments, read-out: Ki = SEM (nM) α2a-AR

Structure (SMILES) | Ki (human α2c-AR) [nM] | Ki (human α2b-AR; [2]) [nM] | Ki (human α2b-AR; [3]) [nM] | Ki (human α2a-AR; [4]) [nM] | Ki (human α2a-AR; [5]) [nM] | α2a/α2b Selectivity = Ki(α2b)/Ki(α2a) (human α2a-AR) | increase in vessel diameter [1] [%] | binding affinity for α2c-AR greater than on the α1-AR subtypes (human α2c-AR; from Table 3)
O=C(NCCNC(=O)[C@@H]1[C@H]2C[C@H]3c4[nH]c5ccccc5c4CCN3C[C@@H]2CC[C@@H]1O)[C@@H]1[C@H]2C[C@H]3c4[nH]c5ccccc5c4CCN3C[C@@H]2CC[C@@H]1O [Compound 3a] | 3.55 | 3160 | 1510 ± 262 | 93.3 | 26.4 ± 7.3 | – | – | –
O=C(NCCCCCNC(=O)[C@@H]1[C@H]2C[C@H]3c4[nH]c5ccccc5c4CCN3C[C@@H]2CC[C@@H]1O)[C@@H]1[C@H]2C[C@H]3c4[nH]c5ccccc5c4CCN3C[C@@H]2CC[C@@H]1O [Compound 3d] | 10.7 | – | – | 6.17 | 1.73 ± 0.26 | – | – | –
O=C(NCCCCCCCCCCNC(=O)[C@@H]1[C@H]2C[C@H]3c4[nH]c5ccccc5c4CCN3C[C@@H]2CC[C@@H]1O)[C@@H]1[C@H]2C[C@H]3c4[nH]c5ccccc5c4CCN3C[C@@H]2CC[C@@H]1O [Compound 3i] | – | – | 18.6 ± 1.6 | – | 0.39 ± 0.08 | 47.7 | – | –
O=C(NCCCCCCCNC(=O)[C@@H]1[C@H]2C[C@H]3c4[nH]c5ccccc5c4CCN3C[C@@H]2CC[C@@H]1O)[C@@H]1[C@H]2C[C@H]3c4[nH]c5ccccc5c4CCN3C[C@@H]2CC[C@@H]1O [Compound 3f] | 3.39 | – | – | 3.09 | 0.87 ± 0.18 | – | – | –
O=C(NCCCCCCCCNC(=O)[C@@H]1[C@H]2C[C@H]3c4[nH]c5ccccc5c4CCN3C[C@@H]2CC[C@@H]1O)[C@@H]1[C@H]2C[C@H]3c4[nH]c5ccccc5c4CCN3C[C@@H]2CC[C@@H]1O [Compound 3g] | – | – | 46 ± 7.6 | – | 0.76 ± 0.12 | 60.5 | – | –
O=C(NCCCCNC(=O)[C@@H]1[C@H]2C[C@H]3c4[nH]c5ccccc5c4CCN3C[C@@H]2CC[C@@H]1O)[C@@H]1[C@H]2C[C@H]3c4[nH]c5ccccc5c4CCN3C[C@@H]2CC[C@@H]1O [Compound 3c] | 8.32 | 398 | 189 ± 38.1 | 53.7 | 15.3 ± 6.2 | – | – | –
COC(=O)[C@@H]1[C@H]2C[C@H]3c4[nH]c5ccccc5c4CCN3C[C@@H]2CC[C@@H]1O [Yohimbine, reference compound] | – | – | – | – | – | – | 22.14±1.08 | at least 4400 fold
O=C(NCCCCCCNC(=O)[C@@H]1[C@H]2C[C@H]3c4[nH]c5ccccc5c4CCN3C[C@@H]2CC[C@@H]1O)[C@@H]1[C@H]2C[C@H]3c4[nH]c5ccccc5c4CCN3C[C@@H]2CC[C@@H]1O [Compound 3e] | 6.92 | 288 | 166 ± 56.7 | 4.47 | 1.35 ± 0.27 | – | – | –
